# Test results: a melting point compilation (Tetko et al.; mined from patent text by program, amines drawn as free bases though some values may be those of a salt)
row,melting point [°C],Structure (SMILES)
1,96 to 99,O=Cc1cccn2cc(-c3ccccc3)nc12
2,134 to 139,Oc1ccc(F)cc1Cc1ccc(F)cc1
3,132,CCCCCCCCC#CCC#CCC#CCS(=O)(=O)CC(=O)O
4,187 to 188,CC(=O)NC[C@H]1CN(c2cc(F)c(N3CCSCC3)c(F)c2)C(=O)O1
5,95 to 97,CCOC(=O)Cc1c(C)n(Cc2cccc(C(F)(F)F)c2)c2ccc(OC)cc12
6,138 to 141,CC(C)(C)OC(=O)N1CCC2(CC1)CC(c1ccc(Cl)cc1)=NO2
7,168 to 169,CCOC(=O)C1=C(C)NC(C)=C(C(=O)OCCC#N)C1c1ccccc1/C=C/C(=O)OC(C)(C)C (stereo unspecified)
8,169 to 171,ON=CNc1nc(OCc2ccc(F)cc2)ncc1F
9,216 to 218,CCCc1nc2c(N)nc3cccnc3c2n1CCCCCC(N)=O
10,185 to 186,Cc1cn(C2OC(CO)C(O)C2F)c(=O)[nH]c1=O (stereo unspecified)
11,98 to 100,CC1CCc2c(N3CCC(NC(=O)OC(C)(C)C)C3)c(F)cc3c(=O)n(N)c(=O)n1c23 (stereo unspecified)
12,278 to 280,CN(C)CCCc1cc(C(=O)Nc2ccc(-c3ccc(C(=O)O)cc3)cc2)ccc1O
13,215 to 218,O=C(O)c1c[nH]c2c(-c3ccncc3)c(-c3ccc(F)cc3)nn2c1=O
14,223 to 225,CC(C)(C)OC(=O)N1CCC2(CC1)CSC1=C(O2)c2cc(-c3ccccc3C(F)(F)F)ccc2C(=O)C1=O
15,228 to 230,Cc1ccc(-c2ccccc2C(=O)Nc2ccc(C(=O)N3C[C@H]4CCCN4c4ccccc43)cc2)cc1
16,110 to 120,Cc1noc(NS(=O)(=O)c2ccccc2-c2ccc(-c3ncco3)cc2CN(C(=O)C(C)C)C2CC2)c1C
17,238,CC1CC(C(=O)Nc2ccccc2)(C(=O)OC(C)(C)C)N(C(=O)CNC(=O)Nc2cccc(C(=O)O)c2)C1c1ccccc1 (stereo unspecified)
18,142 to 145,O=C(O)COc1cc2c(c(Cl)c1Cl)C(=O)C(Cl)(C1CCCCC1)C2 (stereo unspecified)
19,238,COc1ccccc1NC(=O)Nc1nc(NCCc2ccc(O)cc2)nc(Oc2ccc3ccccc3c2)n1
20,128 to 131,Cc1cccc(NC(=O)OC(C)(C)C)c1COc1cccn2c(C)c(C)nc12
21,140 to 141,CC(C)(C)c1cc(-c2nn(CC3COC(=O)O3)c3ncccc23)cc(C(C)(C)C)c1O (stereo unspecified)
22,229 to 230,COC(=O)NC1=NC(c2ccc(I)cc2)CN1 (stereo unspecified)
23,55,CC(C)(C)C(=O)Nc1cccc(P(c2ccccc2)c2cccc3ccccc23)n1 (stereo unspecified)
24,142 to 144,O=C(CCS(=O)(=O)CCOCCc1ccccc1)NCCc1ccc(O)c2[nH]c(=O)sc12
25,132 to 133,C/C=C/c1cc(OC)c2oc(-c3ccc(O)c(OC)c3)c(C)c2c1

row,melting point [°C],Structure (SMILES)
1,208 to 209,COc1cccc(OC)c1C(N)=O
2,235 to 238,O=c1[nH]c2ccccc2n1C1=CCN(C2CCC(c3ccc(F)cc3)(c3ccc(F)cc3)CC2)CC1
3,252 to 254,CCn1ncc2c(NCc3ccccc3)c3ccc(O)cc3nc21
4,46 to 48,Cc1cc(C)c(C=O)c(O)c1
5,134 to 135,COc1ccc(-c2cc(=O)c3cc(OCCCCCCN4CCC(O)CC4)ccc3o2)cc1
6,40 to 41,CCOC(=O)/C=C/C(C)(C)NC(=O)OC(C)(C)C
7,45 to 47,CC(C)(C)c1ccc(OCC(O)CN(CCO)CCO)cc1 (stereo unspecified)
8,144 to 145,CC(=O)Nc1c(C(=O)c2ccccc2)[nH]c2cc(F)ccc12
9,> 300,Cn1c(=O)c(-c2c(Cl)cccc2Cl)cc2cnc(Nc3cccc(C(=O)O)c3)nc21
10,138 to 139,N#Cc1c[nH]cc1-c1ccccc1Cl
11,92 to 93,CC1(C=O)CC1(c1cccc(F)c1)c1cccc(F)c1 (stereo unspecified)
12,152 to 154,CCCOCCOC(=O)C1=C(C)NC(C)=C(/C=C/S(=O)(=O)NC(C)C)C1c1cccc([N+](=O)[O-])c1 (stereo unspecified)
13,146 to 149,CCc1nc2c(C)c([N+](=O)[O-])c(C)nc2[nH]1
14,200 to 203,COc1ccc(-c2csc(Nc3cc4ccccc4cn3)n2)cc1OC
15,93 to 95,CCCCN(CCCC)CCCNS(=O)(=O)c1ccc2c(c1)C(=O)c1cc(S(=O)(=O)NCCCN(CCCC)CCCC)ccc1C2=O
16,71.6 to 72.8,CC(CO)(CO)C(=O)OCc1ccccc1
17,67,CCCCCCc1ccc(C#Cc2ccc(Br)cc2)cc1
18,259 to 261,COc1ccc2c(c1)nnc1nnc(C)n12
19,92 to 94,Cc1cc(Oc2c(Cl)cc(C(F)(F)F)cc2Cl)nn1C(=S)NC(C)C
20,126 to 130,COc1cccc(COc2ncc(F)c(NS(N)(=O)=O)n2)c1
21,235,O=C(c1ccc(Cl)cc1)c1ccc2[nH]c(=O)cc(-c3cccc(Cl)c3)c2c1
22,144,CCC(Oc1ccc2c(-c3ccc(Cl)cc3)noc2c1)C(=O)O (stereo unspecified)
23,107,COc1ccc(Oc2ccc(C(=O)N(C(C)C)C3CCCCC3)cc2)cc1OC
24,118,CC(C)(C)OC(=O)NC1CCN(C2CCN(Cc3ccccc3)CC2)C1 (stereo unspecified)
25,180 to 181,Cc1c(COC(=O)N(c2ccccc2)c2ccccc2)cccc1OCC(=O)O

row,melting point [°C],Structure (SMILES)
1,146 to 147,COC(=O)C(=CN1c2ccc(F)c(F)c2OCC1C)C(=O)OC (stereo unspecified)
2,142 to 143,COC(=O)c1nsnc1N
3,208,COC(=O)c1nc(N)sc1-c1ccccc1
4,225,Cc1nc2c3c(ccc2n1C)[C@@H](O)[C@H](O)[C@@H](c1ccccc1)N3
5,295 to 297,CCOc1ccc2c(=O)cc(-c3ccccc3O)oc2c1
6,233 to 235,COc1nc(C)cnc1NS(=O)(=O)c1cccnc1-c1ccc(C=CC(=O)O)cc1
7,162 to 165,CS(=O)(=O)NCc1ccc2[nH]cc(CCN3C(=O)c4ccccc4C3=O)c2c1
8,84.4 to 86.4,O=C(c1ccc(Cl)cc1)C1CCN(S(=O)(=O)N2CCCC[C@@H]2C(=O)NO)CC1
9,327 to 330,Cn1c2ccccc2c(=O)n2nc(C(N)=O)cc12
10,124 to 126,CCOC(=O)CNC(=O)CCCCCNC(=O)c1ccc(S(C)(=O)=O)cc1
11,248 to 255,O=C(Nc1ccc(N2CCS(=O)(=O)CC2)c(C(F)(F)F)c1)N1CCc2cc(Oc3cc(Cl)ncn3)ccc21
12,137 to 138,CN1C(=O)CCC2=C1CCc1c(F)cccc12
13,56,O=C(O)CCCCCCCCCCc1ccc(F)cc1F
14,156 to 157,O=C(NCCSc1cccc2nccn12)c1ccccc1O
15,115 to 117,Nc1ccc(Cl)c(O)c1
16,150 to 156,COc1cc(Nc2nc3cccc(-c4ccc5[nH]cnc5c4)c3o2)cc(OC)c1OC
17,52 to 54,C=CCn1c2ccccc2c2ccccc21
18,76,Cc1ccc(-c2ccc(C)c(C)n2)cc1
19,178 to 180,Nn1c(C2CCCCC2)nnc(-c2ccccc2)c1=O
20,130 to 133,CCCCCCC(C)(Sc1cc(C(C)(C)C)c(O)c(C(C)(C)C)c1)Sc1cc(C(C)(C)C)c(O)c(C(C)(C)C)c1
21,110 to 112,Cc1cccnc1OC(=O)Oc1ncccc1C
22,> 300,CC(=O)Nc1ccc2oc(C(=O)O)cc2c1
23,> 275,Cc1ccccc1-n1c(-c2sc(Nc3ccc(Cl)cc3)nc2-c2ccccc2)nc2ccccc2c1=O
24,196 to 197,Cn1cc(-c2cnccn2)cc(Br)c1=O
25,181 to 183,CC(C)c1cccc(C(C)C)c1NC(=O)CN1CCN(CCSc2nc3cccc(-c4cc[nH]n4)c3o2)CC1

row,melting point [°C],Structure (SMILES)
1,144 to 146,CCCCNC(=O)NS(=O)(=O)c1sccc1C
2,81.5 to 82.5,CC(=O)Oc1ccc2c(c1)OC(c1ccccc1)(c1ccccc1)O2
3,181 to 182,COc1ccccc1N1CCN(CCCNC(=O)NC23CC4CC(CC(C4)C2)C3)CC1
4,221,Cn1c(C(F)(F)F)cc(=O)n(-c2ccc3snc(C(=O)NS(N)(=O)=O)c3c2)c1=O
5,137 to 138,CCCC1(CC(=O)OCC)OCCc2c1[nH]c1c(C)cc(F)c(Br)c21 (stereo unspecified)
6,115 to 121,COC(=O)c1c2snnc2nn1C
7,89 to 91,CCCCCCCCC1CC(Cn2cncn2)(c2ccc(OC)cc2)N(C)O1 (stereo unspecified)
8,144 to 146,CCOC(=O)N(CC(=O)O)C(=O)c1c(Cl)ccc2c(C(F)(F)F)c(OC)ccc12
9,70,OCCC(c1ccccc1)c1cc(Br)ccc1OCc1ccccc1 (stereo unspecified)
10,104 to 106,CN1CCN(c2ccccc2CC2CCN(c3ccccc3)C2=O)CC1 (stereo unspecified)
11,207 to 208,O=P1(c2ccc(Oc3ccccc3)cc2)c2ccccc2CN1c1ccccc1 (stereo unspecified)
12,104 to 105,O=C1CCCCC1c1ncc[nH]1 (stereo unspecified)
13,184 to 185,O=C(Nc1nc2ccccc2n1CCCN1CCNCC1)c1ccc(C(F)(F)F)cc1
14,238,O=C(O)c1c(Br)c(Br)c([N+](=O)[O-])c2c1OCCO2
15,203 to 205,COc1ccc2c(c1)CC(=O)NC2c1ccccc1Cl (stereo unspecified)
16,281 to 284,NS(=O)(=O)c1cc(C=O)co1
17,91 to 93,CC[C@@H](CO)Nc1nc(-c2ccc(Br)cc2)cs1
18,127 to 128,CCCCN1C(=O)c2cncnc2N(C(=O)CN2CCOCC2)c2ccccc21
19,143 to 145,Cc1nc(C)c(Cl)c(NCc2nccc(SCCCCN3CCNCC3)c2C)n1
20,124 to 125,CN1CCN(C(=O)/C=C/c2occc(=O)c2OCC(=O)OC(C)(C)C)CC1
21,184,Fc1ccc2[nH]cc(CC3CCN(CC4COc5ccc6ncccc6c5O4)CC3)c2c1 (stereo unspecified)
22,191 to 192,CCCCN(CCCC)c1ccc(C=Cc2ccc(C=CC3=C(C#N)C(=C(C#N)C#N)OC3(C)C)s2)c(OC)c1

row,Structure (SMILES),melting point [°C]
1,CC(Cc1ccc(OCc2ccncc2)cc1)NCC(O)c1cccc(Cl)c1 (stereo unspecified),85 to 110
2,O=C(NCCCN1CC=C(c2ccc(Cl)cc2)CC1)C(F)(F)F,105 to 107
3,CN1CCN(C(=O)Nc2ccc3c(c2Cl)C(c2ccccc2F)=NCC(=O)N3C)CC1,154
4,CCOC(=O)c1ccc(C=CC2(O)CN3CCC2CC3)cc1 (stereo unspecified),160 to 162
